Here are results for 4 compounds from patent US20170239212A1, “[…] AND USE THEREOF AS ANTIVIRAL AGENTS” (priority 2014, published 2017).

Data set [1] concerns HIV long terminal repeat (LTR) promoter. The data set is described as follows: HOS LTR stimulation assay (luciferase reporter). The data set is classed as cell-based. Particulars: HOS cells; for Max signal (% of control): LTR-luciferase signal; for EC50: LTR-luciferase, incubated 24, 48 and 72 hours (time of the listed values not stated), read-out: EC50; for Conc (uM) at Max: concentration at maximal LTR-luciferase signal. As for the experimental part: In the assay, non T cell derived human osteosarcoma (HOS) cells are transfected with a luciferase reporter under control of an HIV long terminal repeat (LTR) promoter. Compounds that stimulate the HIV LTR promoter will produce luciferase in a dose dependent manner.
(§1) Specifically, EC50 and CC50 values were determined in parallel using 10 concentrations of compound from 3 fold serial dilutions starting a 5 uM as the highest concentration. Cells and media were added to compounds with a final concentration of DMSO of 1% and incubated at 37° C., 5% CO2 for 24, 48 and 72 hours. EC50 was measured by induced luciferase activity detected by the use of the Steady-Glo® Luciferase reagent (PROMEGA) with an EnVision (Perkin-Elmer) plate reader. CC50 was determined by the dose dependent knock down of cellular ATP detected by the use of CellTiter-Glo® Luminescent Cell Viability reagent (PROMEGA) with an EnVision (Perkin-Elmer) plate reader.
The error bars represent the average and the standard error of the mean of at least three independent experiments.
Background: A reporter such as luciferase makes a cellular process visible.

Data set [2] relates to human osteosarcoma (HOS) cells. Description: HOS cell viability (CellTiter-Glo, cellular ATP). The data set is classed as cell-based. Also on record: unit not given here. Particulars: knock down of cellular ATP. As for the experimental part: as §1
For orientation: ATP-based viability assays read luminescence as a measure of living cells.

Another data set has as its system Jurkat cell line. Description: in vitro. Type of data set: cell-based. Particulars: Jurkat cells, knock down of cellular ATP. As for the experimental part: as §1, with “The compounds were also tested in the T cell derived Jurkat cell line transfected with a luciferase reporter under control of an HIV long terminal repeat (LTR) promoter. Specifically,” for “Specifically,”

Data set [3] concerns the target HIV long terminal repeat (LTR) promoter. Description: in vitro. Type of data set: cell-based. Particulars: Jurkat cells; for EC50: LTR-luciferase, incubated 24, 48 and 72 hours (time of the listed values not stated); for selectivity ratio: human. As for the experimental part:
as §1, with “The compounds were also tested in the T cell derived Jurkat cell line transfected with a luciferase reporter under control of an HIV long terminal repeat (LTR) promoter. Specifically,” for “Specifically,”

A further data set is described as follows: in vitro. Type of data set: cell-based. Particulars: human; Jurkat cells, knock down of cellular ATP. As for the experimental part:
as §1, with “The compounds were also tested in the T cell derived Jurkat cell line transfected with a luciferase reporter under control of an HIV long terminal repeat (LTR) promoter. Specifically,” for “Specifically,”

The target in data set [4] is mouse recombinant isozyme PKCα (Mus musculus, UniProt P20444). Description: [3H]PDBu binding assay (polyethylene glycol precipitation). Particulars: calcium and phosphatidylserine present, 2 nM [3H]PDBu, read-out: Ki (inhibitory dissociation constant, displacement of [3H]PDBu). As for the experimental part: [^3H]PDBu Binding Assay. The inhibitory dissociation constant (Ki) of each bryologue ligand was determined by the ability of the ligand to displace bound [20-^3H]phorbol 12,13-dibutyrate (PDBu) from mouse recombinant isozyme PKCα in the presence of calcium and phosphatidylserine, using a polyethylene glycol precipitation assay developed in our laboratory as described elsewhere. Briefly, the assay mixture (250 μL) contained 50 mM Tris-HCl (pH 7.4 at room temperature), 100 μg/mL phosphatidylserine, 0.1 mM Ca^2+, 4 mg/mL bovine immunoglobulin G and 0.003% Tx-100, 2 nM [^3H]PDBu and various concentrations of the competing ligand. […] The radioactivity was determined by scintillation counting, using Cytoscint (ICN, Costa Mesa, Calif.). Specific binding was calculated as the difference between total and nonspecific PDBu binding. The Inhibitory dissociation constants (Ki) were calculated using the method previously described by Blumberg and Lewin.
The inhibitory dissociation constant (Ki) of MERLE 28 was determined by the ability of the ligand to displace bound [20-^3H]phorbol 12,13-dibutyrate (PDBu) from mouse recombinant isozyme PKCα in the presence of calcium and phosphatidylserine, using a polyethylene glycol precipitation assay previously described by Blumberg and Lewin. […] The radioactivity was determined by scintillation counting, using Cytoscint (ICN, Costa Mesa, Calif.). […]

The structures appear in SMILES notation.

In general, EC50 refers to the concentration at which the effect is half-maximal. Usually CC50 stands for the concentration giving 50% cytotoxicity. `COC(=O)/C=C1/C[C@H]2C[C@]3(O)O[C@H](C[C@@H](O)CC(=O)O[C@@H]([C@@H](C)O)C[C@@H]4C/C(=C\C(=O)OC)[C@H](OC(C)=O)[C@@](O)(O4)C(C)(C)/C=C/[C@@H](C1)O2)C[C@H](OC(C)=O)C3(C)C` [Bryostatin 7]: in data set [1], the “Max signal (% of control)” value was 250 % of control, the EC50 was 6 nM and the “Conc (uM) at Max” value amounted to 0.07 µM. Also, the CCEC50 in data set [2] is listed as 6.24. In addition, the CC50 with Jurkat cell line was determined as 4.6 nM. The compound further returned an EC50 in data set [3] of 1 nM. Also, the “Selectivity (CC50:EC50)” value in data set [3] (ratio of the CC50 to the EC50) came to 4.6.
Take `C=C1C[C@@H]2C[C@@H]3CC(=C)C[C@H](/C=C/C(C)(C)[C@]4(O)O[C@@H](C/C(=C\C(=O)OC)[C@@H]4OC(=O)/C=C/C=C/CCC)C[C@H]([C@@H](C)O)OC(=O)C[C@H](O)C[C@H](C1)O2)O3` [MERLE 23]: in data set [1], the “Max signal (% of control)” value was 166 % of control and the “Conc (uM) at Max” value stood at 0.07 µM. The EC50 in data set [1] (Human immunodeficiency virus 1) stood at 2 nM. This compound also had a CCEC50 in data set [2] of 39.57. This compound gave a CC50 in “in vitro” of 5 nM. In data set [3] (Human immunodeficiency virus 1), this compound registered a concentration giving a half-maximal response (EC50) of 0.2 nM. The selectivity ratio in data set [3] (ratio of the CC50 to the EC50) turned out to be 25.
In general, Ki refers to the dissociation constant of the complex between target and ligand, obtained from inhibition or displacement. `C=C1C[C@H]2C[C@H]3C[C@@H](OC(C)=O)C[C@@H](C[C@@H](O)CC(=O)O[C@@H]([C@@H](C)O)C[C@@H]4C/C(=C\C(=O)OC)[C@H](OC(=O)CCCCCCC)[C@@](O)(O4)C(C)(C)/C=C/[C@@H](C1)O2)O3` [MERLE 27]: the Ki in data set [4] is 3 ± 0.06 nM.
Turning to `CC(=O)O[C@@]12C[C@@H](C)[C@@]3(O)[C@@H](C=C(CO)C[C@]4(O)C(=O)C(C)=C[C@@H]34)[C@@H]1C2(C)C` [Prostratin], in data set [1], the “Max signal (% of control)” value is listed as 274 % of control. In addition, the “Conc (uM) at Max” value in data set [1] was determined as 27.78 µM. The figures for the EC50 in data set [1] (Human immunodeficiency virus 1) and in data set [3] (Human immunodeficiency virus 1) were 1080 nM and 130 nM, respectively. Besides, the CCEC50 in data set [2] is reported as >50. It took 370 nM to reach half-maximal cytotoxicity in the data set “in vitro” (CC50). In addition, in data set [3] (ratio of the CC50 to the EC50), the selectivity ratio was found to be 2.8.
